{
  "source": "patent US20130281409A1",
  "about": "“Myelin Sheath Fatty Acids that Resolve Neuroinflammation” (priority 2012, published 2013)",
  "key": {"[1]": {"tested_on": "azPC-mediated inhibition of MBP Ac1-11 specific T cell proliferation", "assay": "Phospholipase inhibitor effect on azPC-mediated inhibition of T cell proliferation", "format": "cell-based, mouse", "conditions": "about 40 min pre-incubation with inhibitor, 2 μg/ml MBPAc1-11, 30 μg/ml azPC, 48 hours", "protocol": "5×10^6 cells/ml were pre-incubated in complete RPMI media for about 40 min at 37° C. with 5% CO2, in the presence of the corresponding vehicle (DMSO or 100% ethanol) or a phospholipase inhibitor: OBAA (500 nM, Tocris Bioscience), U 73122 (500 nM, Tocris Bioscience), 525143 (5 μM, EMD, Calbiochem), FKGK 11 (50 μM, Caymen Chemical), YM 26734 (250 μM, Tocris Bioscience), LY 311727 (500 μM, Tocris Bioscience), CAY10590 (200 μM, Caymen Chemical), 525145 (5 μM, EMD, Calbiochem). Afterwards, the splenocytes were plated in triplicate and stimulated in vitro with 2 μg/ml of MBPAc1-11 in the presence of 30 μg/ml azPC for 48 hours. Proliferation response is the ratio of the average triplicate wells of MBP+azPC divided by the average triplicate wells of MBP, or MBP divided by MBP."}, "[2]": {"tested_on": "MBPAc1-11-TCR transgenic splenocytes", "assay": "MBPAc1-11-specific T-cell proliferation (3H-thymidine incorporation)", "format": "cell-based, mouse", "conditions": "fatty-acid side-chain analogs, various concentrations", "protocol": "(§1) Splenocytes were harvested from mice transgenic for the MBPAc1-11-specific T-cell receptor and stimulated with 2 μg/ml of MBPAc1-11 in the presence of 30 μg/ml of lipid. Lymph nodes and spleens were also harvested from naive C57BL/6 mice, and CD3^+ T-cell enrichment columns (R&D systems) were used to isolate CD3^+ T cells. The purified CD3^+ T cells were stimulated with 5 μg/ml of plate-bound anti-CD3 antibodies and anti-CD28 antibodies in the presence of 30 μg/ml of POPS, PGPC, azPC ester, brain sulfatides, or azPC, 0.25 mM palmitic acid, or 100% ethanol (as the vehicle control). For assessment of proliferation, 1 μCi of ^3H-thymidine was added to each well for the final 18-24 hours of culture, and incorporation of radioactivity was measured by using a Betaplate scintillation counter. Cytokine assays were performed on culture supernatants after 24 (IL-12p40) or 48 hours (IFN-γ, IL-6, and TNF) of culture by using the BD OptEIA™ Mouse ELISA kits (BD Biosciences).\n5×10^6 cells/ml were stimulated in vitro with 2 μg/ml of MBPAc1-11 in the presence of various concentrations of palmitic acid (Sigma), other lipids, or 100% Ethanol (vehicle alone).\nFor assessment of proliferation, 1 μCi of ^3H-thymidine was added to each well for the final 18 hours of culture, and incorporation of radioactivity was quantified using a Betaplate scintillation counter."}, "[3]": {"tested_on": "CD3+ T cells (gated on CD4+ T cells)", "assay": "T-cell apoptosis, Annexin V and 7AAD staining", "format": "cell-based, mouse", "conditions": "0.25 mM palmitic acid, anti-CD3 and anti-CD28, 48 h", "protocol": "FIG. 5. […] (C) TUNEL staining of brain and spinal-cord tissue from mice immunized with PLP139-151 peptide (to induce EAE) and treated for 12 h with azPC, POPS, or vehicle on day 15 after immunization. […] (D) Quantification of TUNEL-positive infiltrating cells in brain and spinal cord shown in panel (C). Cells were stained according to standard protocols, run on a FACScan flow cytometer (BD Biosciences), and analysed with CellQuest software (BD Immunocytometry Systems). The antibody conjugate used was FITC anti-CD4, clone GK1.5 (BD Pharmingen). 7AAD staining was performed by using the Annexin V-PE Apoptosis Detection Kit I (BD Pharmingen). Cells were stained according to standard protocols, run on a FACScan flow cytometer (BD Biosciences), and analysed with CellQuest software (BD Immunocytometry Systems) or with FlowJo software version 6.3.2 (Tree Star, Inc.)."}, "[4]": {"tested_on": "CD3+ T cells", "assay": "Cytokine production of anti-CD3/anti-CD28-stimulated purified T cells", "format": "cell-based, mouse", "conditions": "anti-CD3 and anti-CD28, 0.25 mM palmitic acid, 48 h", "protocol": "as §1\nAnti-CD3/anti-CD28-stimulated purified T cells: We harvested lymph nodes and spleens from naive C57BL/6 mice and used CD3^+ T-cell enrichment columns (R&D systems) to isolate CD3^+ T cells. We then stimulated 1×10^6 cells/ml of T cells with 5 μg/ml of plate-bound anti-CD3 antibodies plus anti-CD28 antibodies in the presence of 30 μg/ml of POPS, PGPC, azPC ester, brain sulfatides, or azPC, […], or 100% ethanol (as the vehicle control).\nCytokine production by cells from the lymph nodes and spleens of PGPC co-immunized mice was measured after 66 hours of stimulation by using the BD OptEIA™ Mouse IFN-γ ELISA kit (BD Biosciences). Cytokine assays for the anti-CD3/anti-CD28 antibody-stimulated T cells and PLP139-151-stimulated splenocytes were performed on culture supernatants after 48 hours of stimulation using the BD OptEIA™ Mouse IL-6, IFN-γ, and TNF alpha ELISA kits (BD Biosciences) and the Mouse IL-17 DuoSet ELISA Development kit (R&D Systems)."}, "[5]": {"tested_on": "EAE in PLP139-151-immunized SJL/J mice", "assay": "EAE, lipid or palmitic-acid treatment of established disease", "format": "in vivo, mouse", "protocol": "Animal experiments were approved by, and performed in compliance with, the National Institute of Health guidelines of the Institutional Animal Care and Use Committee at Stanford University. For induction of EAE, 8- to 12-week-old female SJL/J mice (Jackson Laboratory) were immunized subcutaneously with 100 μg of PLP139-151 emulsified in CFA (Difco Laboratories). Lipid and palmitic-acid treatment: Administration of lipid, palmitic acid, or vehicle was initiated once the PLP139-151-immunized mice developed paralysis (representing clinical EAE) and repeated every other day, for a total of ten separate injections. 100 μg of POPS, PGPC, azPC ester, azPC, palmitic acid, or vehicle (0.05% Tween-20 in PBS) was administered in 0.2 ml intravenously in the tail. EAE treatment with lipid: 100 μg of PGPC or sphingomyelin or vehicle ([…] Tween-20 in PBS) was administered in 0.2 ml intravenously in the tail. Treatment with lipid or vehicle was initiated once the PLP139-151-immunized mice developed paralysis (representing clinical EAE) and repeated 3, 6, 12, and 18 days later, for a total of five separate injections."}, "[6]": {"tested_on": "CD3+ T cells", "assay": "Proliferation of anti-CD3/anti-CD28-stimulated purified T cells", "format": "cell-based, mouse", "conditions": "anti-CD3 and anti-CD28, 0.25 mM palmitic acid, 48 h", "protocol": "Splenocytes were harvested from mice transgenic for the MBPAc1-11-specific T-cell receptor and stimulated with 2 μg/ml of MBPAc1-11 in the presence of 30 μg/ml of lipid. Lymph nodes and spleens were also harvested from naive C57BL/6 mice, and CD3^+ T-cell enrichment columns (R&D systems) were used to isolate CD3^+ T cells. […] Cytokine assays were performed on culture supernatants after 24 (IL-12p40) or 48 hours (IFN-γ, IL-6, and TNF) of culture by using the BD OptEIA™ Mouse ELISA kits (BD Biosciences). Cd1d^−/− T cells: We harvested splenocytes from Cd1d^−/− mice and their wild-type littermates and used CD3^+ T-cell enrichment columns (R&D systems) to isolate T cells. […] Anti-CD3/anti-CD28-stimulated purified T cells: We harvested lymph nodes and spleens from naive C57BL/6 mice and used CD3^+ T-cell enrichment columns (R&D systems) to isolate CD3^+ T cells."}, "[7]": {"tested_on": "EAE in PLP139-151-immunized SJL/J mice", "assay": "EAE, lipid administered prophylactically (co-immunization with PLP139-151)", "format": "in vivo, mouse", "conditions": "6 μg/injection; s.c. with PLP139-151 on day 0, i.p. on days 4 and 7", "protocol": "Animal experiments were approved by, and performed in compliance with, the National Institute of Health guidelines of the Institutional Animal Care and Use Committee at Stanford University. For induction of EAE, 8- to 12-week-old female SJL/J mice (Jackson Laboratory) were immunized subcutaneously with 100 μg of PLP139-151 emulsified in CFA (Difco Laboratories). Three injections of PGPC (6 μg/mouse/injection) or vehicle (0.05% Tween-20 in PBS) were delivered on days 0, 4, and 7 after immunization with PLP139-151. On day 0, the lipid or vehicle was emulsified together with PLP139-151 in CFA and administered by subcutaneous injection. At subsequent time points, lipid or vehicle was injected intraperitoneally. EAE was assessed as previously described. To induce EAE in SJL/J mice (Jackson Mice), we immunized 8- to 12-week-old female animals subcutaneously with 100 μg of PLP139-151 emulsified in CFA (Difco Laboratories). Prophylactic administration of lipid: Three injections of PGPC or sphingomyelin (6 μg/mouse/injection) or vehicle (0.05% Tween-20 in PBS) were delivered on days 0, 4, and 7 after immunization with PLP139-151. […] Clinical disease was monitored daily using the following scoring system: 0, no disease; 1, limp tail; 2, hind limb weakness; 3, hind limb paralysis; 4, hind limb and forelimb paralysis; 5, death. […]"}, "[8]": {"tested_on": "EAE in PLP139-151-immunized SJL/J mice", "conditions": "prophylactic regimen, previously tested by the applicant, cited from earlier work"}, "[9]": {"tested_on": "NF-κB and ERK pathways, Bcl-2 family proteins", "assay": "Immunoblot of inflammatory, survival and apoptotic signaling in anti-CD3/anti-CD28-stimulated T cells", "format": "cell-based, mouse", "conditions": "30 μg/ml lipid, 15 min or 24 h", "protocol": "CD3^+ T cells were isolated from the lymph nodes of naïve C57BL/6 mice by using CD3^+ T-cell enrichment columns (R&D systems). […] Cells were washed with ice-cold PBS and lysed in RIPA lysis buffer containing 1X Halt protease and phosphatase inhibitor cocktail (Pierce) with a Dounce homogenizer. Immunoblotting was performed with antibodies against phospho-Bim ([…]), phospho-Bad ([…]), phospho-Bcl-2 ([…]), phospho-IKKα/β (serines 180/181), phospho-p65 ([…]), phospho-ERK1/2 […]), and IκBα from Cell Signaling Technology."}},
  "note": "Where two headings read alike, the source gives them in different places.",
  "data": [
    {"compound": "CCCC[C@H](CCC(=O)O)NC(=O)CCCCCCc1ccccc1", "note": "[CAY10950]", "values": [
      {"measurement": "Effect on azPC (azPC-mediated inhibition of MBP-specific T cell proliferation)", "setting": "[1]", "result": "Inhibited"}
    ]},
    {"compound": "O=C(CCCCc1ccccc1)C(F)(F)C(F)(F)F", "note": "[FKGK 11]", "values": [
      {"measurement": "Effect on azPC (azPC-mediated inhibition of MBP-specific T cell proliferation)", "setting": "[1]", "result": "No effect"}
    ]},
    {"compound": "CCc1c(CC(N)=O)c2cc(OCCCP(=O)(O)O)ccc2n1Cc1ccccc1", "note": "[LY 311727]", "values": [
      {"measurement": "Effect on azPC (azPC-mediated inhibition of MBP-specific T cell proliferation)", "setting": "[1]", "result": "Inhibited"}
    ]},
    {"compound": "COc1ccc2c(c1)CC[C@@H]1[C@@H]2CC[C@]2(C)[C@@H](NCCCCCCN3C(=O)C=CC3=O)CC[C@@H]12", "note": "[U 73122]", "values": [
      {"measurement": "Effect on azPC (azPC-mediated inhibition of MBP-specific T cell proliferation)", "setting": "[1]", "result": "No effect"}
    ]},
    {"compound": "CCCCCCCCCCCC(=O)c1c(O)c(C(=O)CCCCCCCCCCC)c(O)c(C2CC(c3ccc(O)cc3)Oc3cc(O)ccc32)c1O", "note": "(stereo not drawn) [YM 26734]", "values": [
      {"measurement": "Effect on azPC (azPC-mediated inhibition of MBP-specific T cell proliferation)", "setting": "[1]", "result": "Inhibited"}
    ]},
    {"compound": "CCCCCCCC(=O)OC", "note": "[methyl octanoate]", "values": [
      {"measurement": "concentration at which T-cell proliferation was suppressed", "setting": "[2]", "result": 10, "unit": "mM"}
    ]},
    {"compound": "CCCCCCCC(=O)O", "note": "[octanoic acid]", "values": [
      {"measurement": "concentration at which T-cell proliferation was suppressed", "setting": "[2]", "result": 5, "unit": "mM"}
    ]},
    {"compound": "CCCCCCCCCCCCCCCC(=O)O", "note": "[palmitic acid]", "values": [
      {"measurement": "T-cell apoptosis", "setting": "[3]", "result": "induced T-cell apoptosis"},
      {"measurement": "T-cell production of IFN-γ", "setting": "[4]", "result": "suppressed"},
      {"measurement": "T-cell production of IL-6", "setting": "[4]", "result": "suppressed"},
      {"measurement": "T-cell production of IL-17", "setting": "[4]", "result": "suppressed"},
      {"measurement": "T-cell production of TNF", "setting": "[4]", "result": "suppressed"},
      {"measurement": "concentration at which T-cell proliferation was suppressed", "setting": "[2]", "result": 0.1, "unit": "mM"},
      {"measurement": "EAE course after treatment was halted", "setting": "[5]; 100 μg i.v. every other day, then stopped", "result": "disease relapsed"},
      {"measurement": "EAE severity, established disease", "setting": "[5]; 100 μg i.v. once paralysis developed, every other day, ten injections", "result": "attenuated EAE"},
      {"measurement": "T-cell proliferation", "setting": "[6]", "result": "suppressed T-cell proliferation as effectively as the phospholipids"}
    ]},
    {"compound": "Sphingomyelin [reference compound]", "values": [
      {"measurement": "EAE severity (clinical score)", "setting": "[7]", "result": "attenuated EAE"},
      {"measurement": "EAE severity, established disease", "setting": "[5]; 100 μg i.v. from disease onset (10 days after immunization), five injections", "result": "exacerbated EAE"}
    ]},
    {"compound": "sulfatide [reference compound]", "values": [
      {"measurement": "EAE severity", "setting": "[8]", "result": "exacerbated EAE"},
      {"measurement": "EAE severity", "setting": "[8]; listed as sulfatides", "result": "worsened EAE"},
      {"measurement": "CD3/CD28-induced activation of the NF-κB and ERK pathways", "setting": "[9]", "result": "neither inhibited"}
    ]}
  ]
}
